The values that follow come from the RepoRT retention time repository.

This data set can be described thus: HILIC, Waters ACQUITY UPLC BEH Amide, 100 × 2.1 mm, 1.7 µm; A: water + 0.125% formic acid + 10 mM ammonium formate; B: 5% water + 95% acetonitrile + 0.125% formic acid + 10 mM ammonium formate; gradient (min/%B) 0/100 2/100 7.7/70 9.5/40 10.25/30 12.75/100 17/100. Particulars: stereoisomer not certain.
On to `NC(CCC(=O)O)C(=O)O` (stereo not given) [Glutamic acid], for which the LC retention time turned out to be 8.85 min.

As to `Cc1nnc2n1-c1ccc(Cl)cc1C(c1ccccc1Cl)=NC2` [Triazolam], the LC retention time stood at 1.3 min.

Consider `CCCCCC(=O)OC(CC(=O)[O-])C[N+](C)(C)C` [Hexanoyl-L-carnitine], for which the LC retention time was found to be 5.09 min.

For `Cc1nc2n(c(=O)c1CCN1CCC(c3noc4cc(F)ccc34)CC1)CCCC2` [Risperidone], the LC retention time came out at 3.52 min.

With `COc1cc(C)nc(-n2nc(C)cc2OC)n1` [Mepirizole], the LC retention time was 1.03 min.

`COc1ccc2c3c1OC1C(=O)CCC4(O)C(C2)N(C)CCC314` (stereo not given) [Oxycodone]: the LC retention time stood at 4.58 min.

Consider `C#CC1(O)CCC2C3CCc4cc(O)ccc4C3CCC21C` (stereo not given) [Ethynylestradiol], for which the LC retention time is 0.99 min.

Turning to `CN1CCN(c2c(F)cc3c(=O)c(C(=O)O)cn4c3c2SCC4)CC1` [Rufloxacin], the LC retention time came to 4.65 min.

For `CCCC(N)C(=O)O` (stereo not given) [Norvaline], the LC retention time came out at 4.89 min.

For the compound `CCN(CC)CCN1C(=O)CN=C(c2ccccc2F)c2cc(Cl)ccc21` [Flurazepam], the LC retention time stood at 2.41 min.

Consider `C[N+](C)(C)CCCC(=O)O` [4-Trimethylammoniobutanoic acid], for which the LC retention time worked out at 7.66 min.

Turning to `CC(C)CC(NC(=O)CCC(N)C(=O)O)C(=O)O` (stereo not given) [gamma-Glutamylleucine], the LC retention time was determined as 8.1 min.

In the case of `NC(CCC(=O)NC(CSSCC(N)C(=O)O)C(=O)NCC(=O)O)C(=O)O` [L-Cysteine-glutathione disulfide], the LC retention time was 10.2 min.

Take `CN(C)C(CCCN=C(N)N)C(=O)O` (stereo not given) [N,N-Dimethylarginine]: the LC retention time was 9.1 min.

As for `CC(C)NCC(O)COc1ccc(CCOCC2CC2)cc1` (stereo not given) [Betaxolol], the LC retention time came out at 3.05 min.

`NC(=O)NCCCC(N)C(=O)O` (stereo not given) [Citrulline]: the LC retention time came to 8.74 min.

For `C[S+](CCC(N)C(=O)[O-])CC1OC(n2cnc3c(N)ncnc32)C(O)C1O` (stereo not given) [S-Adenosyl-methionine], the LC retention time stood at 9.7 min.

Consider `COc1ccc2[nH]cc(CCNC(C)=O)c2c1` [Melatonin], for which the LC retention time amounted to 1.24 min.

On to `O=C1CC2(CCCC2)CC(=O)N1CCNCC1COc2ccccc2O1` (stereo not given) [Binospirone], for which the LC retention time was found to be 1.8 min.

Turning to `NC(Cc1ccc(O)c([N+](=O)[O-])c1)C(=O)O` (stereo not given) [3-Nitrotyrosine], the LC retention time stood at 6.88 min.

For `Cc1cc2nc3c(=O)[nH]c(=O)nc-3n(CC(O)C(O)C(O)CO)c2cc1C` (stereo not given) [Riboflavin], the LC retention time was 6 min.

As to `C#CC1(O)CCC2C3CCC4=CC(=O)CCC4C3CCC21CC` (stereo not given) [Levonorgestrel], the LC retention time is 0.99 min.

As for `CC(C)CC(NC(=O)C(O)C(N)Cc1ccccc1)C(=O)O` (stereo not given) [Bestatin], the LC retention time amounted to 5.98 min.

For `c1ccc2scnc2c1` [Benzothiazole], the LC retention time was determined as 1.11 min.

`O=c1ccn(C2OC(COP(=O)(O)O)C(O)C2O)c(=O)[nH]1` (stereo not given) [Uridine 5'-monophosphate]: the LC retention time was 8.97 min.

In the case of `COc1cccc(C2(O)CCCCC2CN(C)C)c1` (stereo not given) [Tramadol], the LC retention time turned out to be 2.52 min.

Take `CCOC(=O)C1=C(COCCN)NC(C)=C(C(=O)OC)C1c1ccccc1Cl` (stereo not given) [Amlodipine]: the LC retention time turned out to be 4.24 min.

`NC(N)=NCCC(=O)O` [3-Guanidinopropionic acid]: the LC retention time was 8.15 min.

On to `CNc1ncnc2c1ncn2C1OC(CO)C(O)C1O` (stereo not given) [6-Methyladenosine], for which the LC retention time amounted to 3.56 min.

`NC(C(=O)NC1C(=O)N2C(C(=O)O)=C(CSc3cn[nH]n3)CSC12)c1ccc(O)cc1` (stereo not given) [Cefatrizine]: the LC retention time was determined as 7.98 min.

Take `NCC1CCC(C(=O)Oc2ccc(CCC(=O)O)cc2)CC1` (stereo not given) [Cetraxate]: the LC retention time came to 5.29 min.

Consider `COC1C(O)C(CO)OC1n1cnc2c(=O)[nH]c(N)nc21` (stereo not given) [2'-O-Methylguanosine], for which the LC retention time is 5.72 min.

As for `Cn1c(=O)c2[nH]cnc2n(C)c1=O` [Theophylline], the LC retention time was determined as 1.54 min.

`Clc1ccc2c(c1)CCc1cccnc1C2=C1CCNCC1` [Desloratadine]: the LC retention time turned out to be 4.9 min.

With `OCc1ccccc1OC1OC(CO)C(O)C(O)C1O` (stereo not given) [Salicin], the LC retention time turned out to be 4.48 min.

In the case of `O=C(C=Cc1ccc(O)c(O)c1)OC1CC(O)(C(=O)O)CC(O)C1O` (stereo not given) [Chlorogenic acid], the LC retention time was 6.68 min.

Take `CN1C2CCC1CC(OC(=O)c1c[nH]c3ccccc13)C2` (stereo not given) [Tropisetron]: the LC retention time came to 3.81 min.

`COc1cc(CNC(=O)CCCCCCC(C)C)ccc1O` [Dihydrocapsaicin]: the LC retention time stood at 1.07 min.

Consider `CCC1=CC2CN(C1)Cc1c([nH]c3ccccc13)C(C(=O)OC)(c1cc3c(cc1OC)N(C)C1C(O)(C(=O)OC)C(OC(C)=O)C4(CC)C=CCN5CCC31C54)C2` (stereo not given) [Vinorelbine], for which the LC retention time came to 4.76 min.

As for `CN(CCOc1ccc(NS(C)(=O)=O)cc1)CCc1ccc(NS(C)(=O)=O)cc1` [Dofetilide], the LC retention time is 3.38 min.

For `NC(CCC(=O)NC(Cc1ccc(O)cc1)C(=O)O)C(=O)O` (stereo not given) [gamma-Glutamyltyrosine], the LC retention time came out at 8.52 min.

For the compound `O=C(CCNNC(=O)c1ccncc1)NCc1ccccc1` [Nialamide], the LC retention time was found to be 1.69 min.

Turning to `CC(=O)NC(Cc1ccccc1)C(=O)O` (stereo not given) [N-Acetylphenylalanine], the LC retention time was determined as 2.61 min.

Consider `CCC1(O)C(=O)OCc2c1cc1n(c2=O)Cc2cc3c(CN(C)C)c(O)ccc3nc2-1` (stereo not given) [Topotecan], for which the LC retention time is 5.72 min.

Take `c1ccncc1` [Pyridine]: the LC retention time amounted to 6.63 min.

In the case of `Cc1c(O)cccc1C(=O)NC(CSc1ccccc1)C(O)CN1CC2CCCCC2CC1C(=O)NC(C)(C)C` (stereo not given) [Nelfinavir], the LC retention time was 1.55 min.

With `O=C(O)c1ccccc1C(=O)O` [Phthalic acid], the LC retention time amounted to 1.15 min.

With `N[C@H]1[C@@H](OP(=O)(O)O)O[C@H](CO)[C@H](O)[C@@H]1O` [alpha-Galactosamine-1-phosphate], the LC retention time came out at 7.06 min.

Turning to `NC(=O)c1[nH]cnc1N` [5-Aminoimidazole-4-carboxamide], the LC retention time was determined as 4.18 min.

On to `CNCC(O)c1ccc(O)cc1` (stereo not given) [Synephrine], for which the LC retention time worked out at 5.67 min.

Turning to `COc1cc2nc(N(C)CCCNC(=O)C3CCCO3)nc(N)c2cc1OC` (stereo not given) [Alfuzosin], the LC retention time was found to be 4.29 min.

As to `CCC(C)C(NC)C(=O)O` (stereo not given) [N-Methylisoleucine], the LC retention time was 6.44 min.

Consider `CCCC(=O)NCC(=O)O` [Butyrylglycine], for which the LC retention time stood at 3.73 min.

For `CS(=O)(=O)Nc1ccc(Cc2noc(-c3ccc4[nH]cc(CCN)c4c3)n2)cc1` [L-694,247], the LC retention time worked out at 5.25 min.

With `NC(=O)NC(N)=O` [Biuret], the LC retention time turned out to be 2.73 min.

Consider `NC1CCCCC1` [Cyclohexanamine], for which the LC retention time came to 5.1 min.

On to `Nc1ccn(C2OC(COP(=O)(O)O)C(O)C2O)c(=O)n1` (stereo not given) [Cytidine-5'-monophosphate], for which the LC retention time stood at 9.48 min.

`CNc1ccccc1` [N-Methylaniline]: the LC retention time was 1.06 min.

On to `NC(=O)N1c2ccccc2C=Cc2ccccc21` [Carbamazepine], for which the LC retention time amounted to 1.21 min.

For `CC(C)C1=CC2=CCC3C(C)(C(=O)O)CCCC3(C)C2CC1` (stereo not given) [Abietic acid], the LC retention time worked out at 1.11 min.

In the case of `CNC1CCC(c2ccc(Cl)c(Cl)c2)c2ccccc21` (stereo not given) [Sertraline], the LC retention time is 2.74 min.

For `CC(=O)N1C(=O)C(=O)c2ccccc21` [Acetylisatin], the LC retention time is 2.4 min.

On to `CN1CCN(C2=Nc3ccccc3Oc3ccc(Cl)cc32)CC1` [Loxapine], for which the LC retention time was found to be 2.18 min.

Turning to `CCCCc1nc(Cl)c(CO)n1Cc1ccc(-c2ccccc2-c2nn[nH]n2)cc1` [Losartan], the LC retention time is 1.27 min.

With `CN(CCOc1ccc(CC2SC(=O)NC2=O)cc1)c1ccccn1` (stereo not given) [Rosigltazone], the LC retention time came to 1.24 min.

Take `NC12CC3CC(CC(C3)C1)C2` [Amantadine]: the LC retention time was 4.88 min.

Regarding `O=C1C(c2c(O)[nH]c3ccccc23)=Nc2ccccc21` [Indarubicin], the LC retention time was 1.07 min.

`CCOc1cc(N)c(Cl)cc1C(=O)NCC1CN(Cc2ccc(F)cc2)CCO1` (stereo not given) [Mosapride]: the LC retention time came out at 1.24 min.

Regarding `CC(N)C(=O)NC(CCC(N)=O)C(=O)O` (stereo not given) [Ala-Gln], the LC retention time came out at 9.11 min.

For `CN(C)CCOC(C)(c1ccccc1)c1ccccn1` (stereo not given) [Doxylamine], the LC retention time was determined as 2.45 min.

`COc1ccc(C2CNC(=O)C2)cc1OC1CCCC1` (stereo not given) [Rolipram]: the LC retention time was 1.12 min.

With `CCCCC1=NC2(CCCC2)C(=O)N1Cc1ccc(-c2ccccc2-c2nn[nH]n2)cc1` [Irbesartan], the LC retention time worked out at 1.16 min.

Regarding `CNC(Cc1ccc(O)cc1)C(=O)[O-]` (stereo not given) [Methyltyrosinate], the LC retention time was 4.23 min.

Consider `Cc1[nH]cnc1CN1CCc2c(c3ccccc3n2C)C1=O` [Alosetron], for which the LC retention time worked out at 4.19 min.

Consider `Nc1nc2ccc(OC(F)(F)F)cc2s1` [Riluzole], for which the LC retention time was determined as 1.03 min.

For the compound `COc1cc(C=CC=O)ccc1O` [Coniferylaldehyde], the LC retention time amounted to 1.14 min.

Take `CCCCCC=CCC=CCC=CCC=CCCCC(=O)Nc1ccc(O)cc1` [AM 404]: the LC retention time worked out at 0.97 min.

Regarding `Cn1nnc2c(C(N)=O)ncn2c1=O` [Temozolomide], the LC retention time turned out to be 1.33 min.

Turning to `CS(=O)(=O)c1ccc(C2=C(c3ccccc3)C(=O)OC2)cc1` [Rofecoxib], the LC retention time was 0.97 min.

On to `O=c1cc(-c2ccc(O)cc2)oc2c(C3OC(CO)C(O)C(O)C3O)c(O)cc(O)c12` (stereo not given) [Vitexin], for which the LC retention time amounted to 5.33 min.
